Where only a bound is given, the exact number is not on record here.

T1 sequence (P35968 806-1356): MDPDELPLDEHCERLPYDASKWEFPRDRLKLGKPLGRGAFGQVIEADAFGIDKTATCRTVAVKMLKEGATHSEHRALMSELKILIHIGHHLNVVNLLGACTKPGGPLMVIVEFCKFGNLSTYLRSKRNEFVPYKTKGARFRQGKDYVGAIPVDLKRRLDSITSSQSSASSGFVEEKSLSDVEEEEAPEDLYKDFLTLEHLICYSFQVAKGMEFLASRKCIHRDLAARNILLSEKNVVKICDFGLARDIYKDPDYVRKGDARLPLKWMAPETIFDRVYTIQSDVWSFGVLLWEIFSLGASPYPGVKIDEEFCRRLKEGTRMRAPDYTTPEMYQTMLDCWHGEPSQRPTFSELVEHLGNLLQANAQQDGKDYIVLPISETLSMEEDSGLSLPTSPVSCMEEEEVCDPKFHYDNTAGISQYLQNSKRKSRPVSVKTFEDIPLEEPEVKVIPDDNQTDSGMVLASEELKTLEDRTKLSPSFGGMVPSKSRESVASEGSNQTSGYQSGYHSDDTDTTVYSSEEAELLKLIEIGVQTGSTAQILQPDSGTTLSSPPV

This assay addresses T1, VEGFR/KDR (Homo sapiens, UniProt P35968).
T1 construct: made in house; host or cells: Sf9 cells (Spodoptera frugiperda), baculovirus
The experiment in a line: VEGFR/KDR kinase inhibition, DELFIA assay. Conditions: ATP 0.6 uM (2x Km), enzyme 5 nM. The format is biochemical. The gist of the method: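 DELFIA time-resolved fluorescence readout using Europium-tagged anti-phosphotyrosine antibody after EDTA stop. Kinase reaction on plate-bound poly(Glu4,Tyr) ran 10-30 min at 30° C with 5 nM enzyme and 0.6 uM ATP (2× Km), following 4 min on-ice pre-incubation with compound; IC50 over a concentration range.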
Consider `CNC(=O)N1CCN(Cc2ccc(-c3cc4nccc(Oc5ccc(NC(=O)NC6CC6)cc5F)c4s3)nc2)CC1` [Compound 552], for which the IC50 is < 50 nM. Under `O=C(Nc1ccc(Oc2ccnc3cc(-c4ccc(CN5CCCC5=O)nc4)sc23)c(F)c1)NC1CC1` [Compound 283, 1-cyclopropyl-3-(3-fluoro-4-(2-(6-((2-oxopyrrolidin-1-yl)methyl)pyridin-3-yl)thieno[3,2-b]pyridin-7-yloxy)phenyl)urea] stands < 50 nM; under `CN(C)CCCc1ccc(NCc2ccc(-c3cc4nccc(Oc5ccc(NC(=O)NC6CC6)cc5F)c4s3)nc2)cc1` [Compound 339, 1-cyclopropyl-3-(4-(2-(5-((4-(3-(dimethylamino)propyl)phenylamino)methyl)pyridin-2-yl)thieno[3,2-b]pyridin-7-yloxy)-3-fluorophenyl)urea], < 50 nM; under “1-(2-(6-(7-(2-fluoro-4-nitrophenoxy)thieno[3,2-b]pyridin-2-yl)pyridin-3-yl)ethyl)pyrrolidin-2-one [Compound 293]”, < 50 nM.

Consider `CC(C)(CO)C(=O)N1CCN(Cc2ccc(-c3cc4nccc(Oc5ccc(NC(=O)NC6CC6)cc5F)c4s3)nc2)CC1` [Compound 537], for which the IC50 was < 50 nM. Under `CCOC(=O)C1CCN(Cc2ccc(-c3cc4nccc(Oc5ccc(NC(=O)NC6CC6)cc5F)c4s3)nc2)CC1` [Compound 58, ethyl 1-((6-(7-(4-(3-cyclopropylureido)-2-fluorophenoxy)-thieno[3,2-b]pyridin-2-yl)pyridin-3-yl)methyl)piperidine-4-carboxylate] stands < 50 nM; under `O=C(Nc1ccc(Oc2ccnc3cc(-c4ccc(CN5CCC[C@H]5C(=O)O)cn4)sc23)c(F)c1)NC1CC1` [Compound 173, (S)-1-((6-(7-(4-(3-cyclopropylureido)-2-fluorophenoxy)thieno[3,2-b]pyridin-2-yl)pyridin-3-yl)methyl)pyrrolidine-2-carboxylic acid], < 50 nM.

For the compound `O=C(CO)NC1CN(Cc2ccc(-c3cc4nccc(Oc5ccc(NC(=O)NC6CC6)cc5F)c4s3)nc2)C1` [Compound 414], the half-maximal inhibitory concentration (IC50) is < 50 nM. Under `O=C(O)CCCNCc1ccc(-c2cc3nccc(Oc4ccc(NC(=O)NC5CC5)c(F)c4F)c3s2)nc1` [Compound 168, 4-((6-(7-(4-(3-cyclopropylureido)-2,3-difluorophenoxy)thieno[3,2-b]pyridin-2-yl)pyridin-3-yl)methylamino)butanoic acid] stands < 50 nM; under `CCOC(=O)CCN1CCN(Cc2ccc(-c3cc4nccc(Oc5ccc(NC(=O)NC6CC6)cc5F)c4s3)nc2)CC1` [Compound 68, ethyl 3-(4-((6-(7-(4-(3-cyclopropyl-ureido)-2-fluorophenoxy)-thieno[3,2-b]-pyridin-2-yl)pyridin-3-yl)methyl)piperazin-1-yl)propanoate], < 50 nM. For the compound `O=C(Nc1ccc(Oc2ccnc3cc(-c4ccc(CN5CCC[C@H]5C(=O)NCCO)cn4)sc23)c(F)c1)NC1CC1` [Compound 485, (S)-1-((6-(7-(4-(3-cyclopropylureido)-2-fluorophenoxy)thieno[3,2-b]pyridin-2-yl)pyridin-3-yl)methyl)-N-(2-hydroxyethyl)pyrrolidine-2-carboxamide], the IC50 was < 50 nM. In the case of `CC(C)(C)OC(=O)NC1CCN(C(=O)Cn2cc(-c3cc4nccc(Oc5ccc(NC(=O)NC6CC6)cc5F)c4s3)nn2)C1` (stereo not drawn) [Compound 382] it was < 50 nM. Turning to `CC(C)(C)OC(=O)N[C@H]1CCN(Cc2ccc(-c3cc4nccc(Oc5ccc(NC(=O)NC6CC6)cc5F)c4s3)nc2)C1` [Compound 480, (S)-tert-butyl 1-((6-(7-(4-(3-cyclopropylureido)-2-fluorophenoxy)thieno[3,2-b]pyridin-2-yl)pyridin-3-yl)methyl)pyrrolidin-3-ylcarbamate], the IC50 was < 50 nM. In the case of `COCCN(Cc1cnc(-c2cc3nccc(Oc4ccc(NC(=O)Nc5ccc(F)cc5F)cc4F)c3s2)n1C)C(C)=O` [Compound 117, N-((2-(7-(4-(3-(2,4-difluorophenyl)ureido)-2-fluorophenoxy)thieno[3,2-b]pyridin-2-yl)-1-methyl-1H-imidazol-5-yl)methyl)-N-(2-methoxyethyl)acetamide] it was < 50 nM; in that of `O=C(Nc1ccc(Oc2ccnc3cc(C(=O)N4CCOCC4)sc23)c(F)c1)NC1CC1` [Compound 450], < 50 nM. In the case of `COCCN(Cc1ccc(-c2cc3nccc(Oc4ccc(NC(=O)NC5CC5)cc4F)c3s2)cc1)C(=O)NC(C)C` [Compound 193, 1-(4-(7-(4-cyclopropylaminocarbonylamino-2-fluorophenoxy)thieno-[3,2-b]pyridin-2-yl)benzyl)-3-isopropyl-1-(2-methoxyethyl)urea] it was < 50 nM; in that of `COCCN(Cc1ccc(-c2cc3nccc(Oc4ccc(NC(=O)NC5CC5)nc4)c3s2)nc1)C(=O)CO` [Compound 31, N-((6-(7-(6-(3-cyclopropylureido)pyridin-3-yloxy)thieno[3,2-b]pyridin-2-yl)pyridin-3-yl)methyl)-2-hydroxy-N-(2-methoxyethyl)acetamide], 100 to 250 nM. Under `C[C@H]1CN(Cc2ccc(-c3cc4nccc(Oc5ccc(NC(=O)NC6CC6)cc5F)c4s3)nc2)CCN1C(=O)CO` [Compound 529, (S)-1-cyclopropyl-3-(3-fluoro-4-(2-(5-((4-(2-hydroxyacetyl)-3-methylpiperazin-1-yl)methyl)pyridin-2-yl)thieno[3,2-b]pyridin-7-yloxy)phenyl)urea] stands < 50 nM; under `CCNC(=O)N1CCN(Cc2ccc(-c3cc4nccc(Oc5ccc(NC(=O)NC6CC6)cc5F)c4s3)nc2)CC1` [Compound 551], < 50 nM.

As for `CCOC(=O)C1CCCN(C(=O)c2ccc(-c3cc4nccc(Oc5ccc(NC(=O)NC6CC6)cc5F)c4s3)nc2)C1` (stereo not drawn) [Compound 237, ethyl 1-(6-(7-(4-(3-cyclopropylureido)-2-fluorophenoxy)thieno-[3,2-b]pyridin-2-yl)nicotinoyl)piperidine-3-carboxylate], the IC50 was < 50 nM. In the case of `O=C(O)CCC1CCN(Cc2ccc(-c3cc4nccc(Oc5ccc(NC(=O)NC6CC6)cc5F)c4s3)nc2)CC1` [Compound 330, 3-(1-((6-(7-(4-(3-cyclopropylureido)-2-fluorophenoxy)thieno[3,2-b]pyridin-2-yl)pyridin-3-yl)methyl)piperidin-4-yl)propanoic acid] it was < 50 nM. Take `COCCN(Cc1ccc(-c2cc3nccc(Oc4ccc(NC(=O)NC5CC5)cc4F)c3s2)nc1)C(=O)[C@@H](NC(=O)CN)C(C)C` [Compound 93, (S)-2-(2-aminoacetamido)-N-((6-(7-(4-(3-cyclopropylureido)-2-fluorophenoxy)-thieno[3,2-b]pyridin-2-yl)pyridin-3-yl)methyl)-N-(2-methoxyethyl)-3-methylbutanamide]: the IC50 is < 50 nM. Take `COCCN(Cc1ccc(-c2cc3nccc(Oc4ccc(NC(=O)NC5CC5)c(F)c4F)c3s2)nc1)C(=O)CO` [Compound 259-A, N-((6-(7-(4-(3-cyclopropylureido)-2,3-difluorophenoxy)thieno[3,2-d]pyridin-2-yl)pyridin-3-yl)methyl)-2-hydroxy-N-(2-methoxyethyl)acetamide]: the IC50 is < 50 nM.

Turning to `CCOC(=O)C1CCCN(Cc2ccc(-c3cc4nccc(Oc5ccc(NC(=O)NC6CC6)cc5F)c4s3)nc2)C1` (stereo not drawn) [Compound 475, ethyl 1-((6-(7-(4-(3-cyclopropylureido)-2-fluorophenoxy)thieno[3,2-b]pyridin-2-yl)pyridino-yl)methyl)piperidine-3-carboxylate], the IC50 is < 50 nM. In the case of `O=C(Nc1ccc(Oc2ccnc3cc(-c4ccc(CN5CCN(CCn6ccnc6)CC5)cn4)sc23)c(F)c1)NC1CC1` [Compound 54-G, 1-(4-(2-(5-((4-(2-(1H-imidazol-1-yl)ethyl)piperazin-l-yl)methyl)pyridin-2-yl)thieno[3,2-b]pyridin-7-yloxy)-3-fIuorophenyl)-3-cyclopropylurea] it was < 50 nM; in that of `CC(C)(C)C(=O)OC1CCN(C(=O)c2cc3nccc(Oc4ccc(NC(=O)NC5CC5)cc4F)c3s2)CC1` [Compound 455], 100 to 250 nM; in that of `CCNC(=O)N1CCN(C(=O)c2ccc(-c3cc4nccc(Oc5ccc(NC(=O)NC6CC6)cc5F)c4s3)nc2)CC1` [Compound 557], < 50 nM. In the case of `CC(C)(C)C(=O)O[C@@H]1CCN(C(=O)c2cc3nccc(Oc4ccc(NC(=O)NC5CC5)cc4F)c3s2)C1` [Compound 443] it was ≥ 250 nM; in that of `CCNC(=O)N1CC(OCc2ccc(-c3cc4nccc(Oc5ccc(NC(=O)NC6CC6)cc5F)c4s3)nc2)C1` [Compound 409], < 50 nM. In the case of `O=C(Nc1ccc(Oc2ccnc3cc(-c4ccc(CCN5CCOCC5)cn4)sc23)c(F)c1)NC1CC1` [Compound 178, 1-cyclopropyl-3-(3-fluoro-4-(2-(5-(2-morpholinoethyl)pyridin-2-yl)thieno[3,2-b]pyridin-7-yloxy)phenyl)urea] it was < 50 nM. Regarding `CC(C)NC(=O)Nc1ccc(Oc2ccnc3cc(-c4ncc(C(=O)NCCN5CCOCC5)n4C)sc23)c(F)c1` [Compound 218, 2-(7-(2-fluoro-4-(3-isopropylureido)phenoxy)thieno[3,2-b]pyridin-2-yl)-1-methyl-N-(2-morpholinoethyl)-1H-imidazole-5-carboxamide], the IC50 was < 50 nM. As for `O=C(Nc1ccc(Oc2ccnc3cc(-c4ccc(CN5CCN(CC(F)(F)F)CC5)cn4)sc23)c(F)c1)NC1CC1` [Compound 84, 1-cyclopropyl-3-(3-fluoro-4-(2-(5-((4-(2,2,2-trifluoroethyl)piperazin-1-yl)methyl)-pyridin-2-yl)thieno[3,2-b]pyridin-7-yloxy)phenyl)urea], the IC50 was < 50 nM.

Consider `NC(CCCCNCc1ccc(-c2cc3nccc(Oc4ccc(NC(=O)NC5CC5)c(F)c4F)c3s2)nc1)C(=O)O` (stereo not drawn) [Compound 170, 2-amino-6-((6-(7-(4-(3-cyclopropylureido)-2,3-difluorophenoxy)thieno[3,2-b]pyridin-2-1)pyridin-3-yl)methylamino)hexanoic acid], for which the IC50 is < 50 nM.

For orientation: IC50 means the concentration that gives 50% inhibition. High values mean a need for much substance, low ones inhibition by little substance.

Source of the values: patent US8906852B2 (MethylGene Inc., priority 2010, dated 2014).
